Experimental data from US12581252B2, “Substituted pyrrolo[3,4-b]pyridines as PI3K-α inhibitors” (Relay Therapeutics, Inc., priority 2020, dated 2026).

These compounds were tested against H1047R PIK3CA enzyme (Homo sapiens, UniProt P42336, H1047R) (assay: ADP-Glo Biochemical PIK3CA Kinase Assay).
Sequence of H1047R PIK3CA enzyme (P42336 whole entry H1047R): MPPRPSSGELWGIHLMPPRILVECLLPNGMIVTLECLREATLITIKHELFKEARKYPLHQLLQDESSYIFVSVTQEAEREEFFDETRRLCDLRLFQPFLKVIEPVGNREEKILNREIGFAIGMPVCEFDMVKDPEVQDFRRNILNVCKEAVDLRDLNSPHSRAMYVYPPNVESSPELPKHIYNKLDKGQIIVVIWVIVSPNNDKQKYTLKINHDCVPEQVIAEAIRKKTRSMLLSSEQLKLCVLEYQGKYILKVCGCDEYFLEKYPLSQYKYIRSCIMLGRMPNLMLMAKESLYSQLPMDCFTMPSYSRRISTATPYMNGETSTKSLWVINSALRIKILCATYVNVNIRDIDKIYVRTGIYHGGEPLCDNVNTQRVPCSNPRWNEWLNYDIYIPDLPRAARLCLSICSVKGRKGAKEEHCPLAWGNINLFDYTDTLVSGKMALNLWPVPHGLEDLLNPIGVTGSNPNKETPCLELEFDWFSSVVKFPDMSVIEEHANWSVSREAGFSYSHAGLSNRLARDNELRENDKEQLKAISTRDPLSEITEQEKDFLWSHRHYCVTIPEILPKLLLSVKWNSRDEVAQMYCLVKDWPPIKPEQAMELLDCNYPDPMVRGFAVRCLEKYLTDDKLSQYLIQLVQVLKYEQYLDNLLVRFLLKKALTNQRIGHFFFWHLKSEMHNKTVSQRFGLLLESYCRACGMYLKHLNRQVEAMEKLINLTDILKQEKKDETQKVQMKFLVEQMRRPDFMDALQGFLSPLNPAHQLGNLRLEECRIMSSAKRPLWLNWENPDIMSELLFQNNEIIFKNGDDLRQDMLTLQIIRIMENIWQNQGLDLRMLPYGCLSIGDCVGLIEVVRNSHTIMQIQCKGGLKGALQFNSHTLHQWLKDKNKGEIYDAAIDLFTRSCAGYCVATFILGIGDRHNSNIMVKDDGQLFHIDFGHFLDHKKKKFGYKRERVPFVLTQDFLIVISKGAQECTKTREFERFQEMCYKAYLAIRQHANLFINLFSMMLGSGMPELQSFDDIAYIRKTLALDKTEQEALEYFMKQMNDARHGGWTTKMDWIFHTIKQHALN
Sequence of H1047R PIK3CA enzyme (P27986 whole entry partner): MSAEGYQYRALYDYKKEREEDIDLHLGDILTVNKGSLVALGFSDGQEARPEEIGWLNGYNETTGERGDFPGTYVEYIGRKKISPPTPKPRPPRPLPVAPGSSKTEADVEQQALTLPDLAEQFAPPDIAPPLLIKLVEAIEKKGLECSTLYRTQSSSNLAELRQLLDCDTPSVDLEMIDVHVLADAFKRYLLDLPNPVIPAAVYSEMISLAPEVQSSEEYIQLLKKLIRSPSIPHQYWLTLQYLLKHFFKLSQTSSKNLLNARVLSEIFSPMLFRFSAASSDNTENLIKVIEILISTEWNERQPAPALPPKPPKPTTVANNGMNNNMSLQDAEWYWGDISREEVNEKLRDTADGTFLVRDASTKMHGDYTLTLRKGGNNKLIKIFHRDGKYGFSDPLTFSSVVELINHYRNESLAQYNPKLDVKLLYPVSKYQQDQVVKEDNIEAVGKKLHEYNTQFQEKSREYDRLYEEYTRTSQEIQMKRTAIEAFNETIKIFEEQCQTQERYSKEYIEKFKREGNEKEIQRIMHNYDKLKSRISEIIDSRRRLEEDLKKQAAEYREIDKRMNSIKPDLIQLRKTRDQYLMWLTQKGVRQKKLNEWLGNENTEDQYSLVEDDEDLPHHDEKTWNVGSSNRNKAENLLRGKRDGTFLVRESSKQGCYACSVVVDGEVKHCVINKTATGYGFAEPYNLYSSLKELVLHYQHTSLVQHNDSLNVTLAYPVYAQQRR

| Structure (SMILES) | IC50 [nM] |
| --- | --- |
| O=C(Nc1cccc2c1C(C1CCCNC1)NC2=O)c1cc(F)cc(C(F)(F)F)c1 (stereo not drawn) [Compound I-1747] | 10000 to 100000 |
| Nc1cc(C(F)(F)F)cc(C(=O)Nc2cccc3c2C(c2cc(F)ccc2Cl)NC3=O)n1 (stereo not drawn) [Compound I-726] | 1000 to 10000 |
| N#CCc1cc(NC(=O)c2cc(F)cc(C(F)(F)F)c2)c2c(c1)C(=O)N[C@@H]2c1cc(F)ccc1Cl [Compound I-1087] | 100 to 500 |
| Cn1ncc(C2NC(=O)c3cccc(NC(=O)c4nsc5ccccc45)c32)c1C(F)(F)F (stereo not drawn) [Compound I-85] | 1000 to 10000 |
| Cc1ccccc1C1NC(=O)c2c(CCO)ccc(NC(=O)c3nsc4ccccc34)c21 (stereo not drawn) [Compound I-434] | ≤ 100 |
| CS(=O)(Cc1cc(NC(=O)c2cc(F)cc(C(F)(F)F)c2)c2c(c1)C(=O)NC2c1cc(F)ccc1Cl)=Nc1ccccc1 (stereo not drawn) [Compound I-1435] | ≤ 100 |
| Cn1ccnc1C(C)(O)c1cc(NC(=O)c2cc(F)cc(C(F)(F)F)c2)c2c(c1)C(=O)NC2c1cc(F)ccc1Cl (stereo not drawn) [Compound I-1199] | ≤ 100 |
| O=C1NC(c2cc(F)ccc2Cl)c2c(NC(=O)N3CCCCC3)cc(-c3ccc4ncnn4c3)cc21 (stereo not drawn) [Compound I-1663] | 1000 to 10000 |
| O=C(Nc1cc(CO)cc2c1C(c1cc(F)ccc1Cl)NC2=O)c1cc(F)cc(C(F)(F)F)c1 (stereo not drawn) [Compound I-185] | ≤ 100 |
| O=C1NC(c2cc(F)ccc2Cl)c2c(OC3CCOc4ccccc43)cc(-c3ccc4ncnn4c3)cc21 (stereo not drawn) [Compound I-2043] | 10000 to 100000 |
| O=C(Nc1cc(-c2ccc3ncnn3c2)cc2c1[C@H](c1cc(F)ccc1Cl)NC2=O)c1ccc(F)c(OC(F)(F)F)c1 (stereo in doubt) [Compound I-1107] | 100 to 500 |
| CC(=O)Nc1cc(NC(=O)c2cc(F)cc(C(F)(F)F)c2)c2c(c1)C(=O)N[C@@H]2c1cc(F)ccc1Cl [Compound I-462] | 1000 to 10000 |
| Nc1cc(C(=O)Nc2cccc3c2C(c2cc(F)ccc2Cl)NC3=O)cc(C(F)(F)F)c1 (stereo not drawn) [Compound I-449] | 1000 to 10000 |
| O=C(Nc1cccc2c1C(c1cc(F)ccc1Cl)NC2=O)c1cscc1C(F)(F)F (stereo not drawn) [Compound I-2361] | 1000 to 10000 |
| CN1CCN=C1Nc1cc(NC(=O)c2cc(F)cc(C(F)(F)F)c2)c2c(c1)C(=O)NC2c1cc(F)ccc1Cl (stereo not drawn) [Compound I-2298] | 100 to 500 |
| Cc1nn(C)c(C)c1-c1cc(NC(=O)c2cc(F)cc(Cl)c2)c2c(n1)C(=O)NC2c1cc(F)ccc1Cl (stereo not drawn) [Compound I-410] | 500 to 1000 |
| O=C1NC(c2cc(F)ccc2Cl)c2c(COc3cc4ccccc4cn3)cc(-c3ccc4ncnn4c3)cc21 (stereo not drawn) [Compound I-1981] | 1000 to 10000 |
| O=C1NC(c2cc(F)ccc2Cl)c2c(NC(=O)C34C5C6C7C5C3C7C64)cc(Br)cc21 (stereo not drawn) [Compound I-1182] | 1000 to 10000 |
| CC1(C)COC(Nc2cc(NC(=O)c3cc(F)cc(C(F)(F)F)c3)c3c(c2)C(=O)NC3c2cc(F)ccc2Cl)=N1 (stereo not drawn) [Compound I-2358] | 100 to 500 |
| O=C1N[C@@H](c2cc(F)ccc2Cl)c2c(NC(=O)N3C[C@H](O)C[C@@H]3CC(F)(F)F)cccc21 (racemic) [Compound I-2162] | 1000 to 10000 |
| O=C(Nc1cc(-c2ccc3nnc(C(F)F)n3c2)cc2c1[C@@H](c1cc(F)ccc1Cl)NC2=O)c1cc(F)cc(C(F)(F)F)c1 [Compound I-1924] | 1000 to 10000 |

| Structure (SMILES) | IC50 [nM] |
| --- | --- |
| O=C(Nc1cc(Br)cc2c1C(c1cc(F)ccc1Cl)NC2=O)c1cc(Cl)cc(F)c1Cl (stereo not drawn) [Compound I-694] | 1000 to 10000 |
| O=C(Nc1cc(-c2cn3c(F)cnc3cn2)cc2c1[C@H](c1cc(F)ccc1Cl)NC2=O)c1cc(F)cc(C(F)(F)F)c1 [Compound I-1878] | ≤ 100 |
| CC1(Nc2cc(NC(=O)c3cc(F)cc(C(F)(F)F)c3)c3c(c2)C(=O)N[C@H]3c2cc(F)ccc2Cl)COC1 [Compound I-813] | ≤ 100 |
| COCc1cc2c(c(N(C)C(=O)c3nsc4ccccc34)c1)C(c1ccccc1C)NC2=O (stereo not drawn) [Compound I-134, N-(6-(Methoxymethyl)-1-oxo-3-(o-tolyl)isoindolin-4-yl)-N-methylbenzo[d]isothiazole-3-carboxamide] | 10000 to 100000 |
| O=C(Nc1cccc2c(=O)[nH]n(Cc3ccccc3)c12)c1csc2ccccc12 [Compound I-118] | 10000 to 100000 |
| Cc1cc(=O)[nH]cc1C(=O)Nc1cc(Br)cc2c1C(c1cc(F)ccc1Cl)NC2=O (stereo not drawn) [Compound I-1240] | 10000 to 100000 |
| O=C1N[C@@H](c2cc(F)ccc2Cl)c2c(NC(=O)[C@H]3CCCCN3)cc(-c3ccc4ncnn4c3)cc21 (racemic) [Compound I-1779] | 10000 to 100000 |
| O=C1N[C@H](c2cc(F)ccc2Cl)c2c(NC(=O)[C@@H]3CCC[C@H](OC(F)(F)F)C3)cccc21 (single isomer, unassigned) [Compound I-2213] | 10000 to 100000 |
| CS(=O)(=O)Cc1cc(NC(=O)c2cc(F)cc(C(F)(F)F)c2)c2c(c1)C(=O)N[C@@H]2c1cc(F)ccc1Cl [Compound I-619] | 1000 to 10000 |
| Cc1ccccc1C1NC(=O)c2nccc(NC(=O)N3CCc4ccncc43)c21 (stereo not drawn) [Compound I-251] | 10000 to 100000 |
| COc1ccc([C@H](C)N2C(=O)c3cc(Br)cc(N)c3[C@H]2c2cc(F)ccc2Cl)cc1 (racemic) [Compound I-862] | 1000 to 10000 |
| O=C1NC(c2cc(F)ccc2Cl)c2c1cccc2-n1[nH]c(=O)c2ccccc21 (stereo not drawn) [Compound I-1714] | 10000 to 100000 |
| O=C1NC(c2cc(F)ccc2Cl)c2c(NC(=O)C3CCc4ccccc4CC3)cccc21 (stereo not drawn) [Compound I-2374] | 10000 to 100000 |
| Cc1ccccc1C1NC(=O)c2c(N(C)C)ncc(NC(=O)c3nsc4ccccc34)c21 (stereo not drawn) [Compound I-143] | 100 to 500 |
| CCc1cc(C(=O)Nc2cc(Br)cc3c2C(c2ccccc2C)NC3=O)ccc1F (stereo not drawn) [Compound I-640] | 1000 to 10000 |
| O=C(Nc1cc(C#Cc2ccccn2)cc2c1C(c1cc(F)ccc1Cl)NC2=O)c1cc(F)cc(C(F)(F)F)c1 (stereo not drawn) [Compound I-1185] | ≤ 100 |
| O=C1N[C@@H](c2cc(F)ccc2Cl)c2c(NC(=O)N3C[C@@H](O)c4cc(F)ccc43)cc(Cl)cc21 (single isomer, unassigned) [Compound I-2401] | 10000 to 100000 |
| O=C(Nc1cc(-n2cc(F)cn2)nc2c1C(c1cc(F)ccc1Cl)NC2=O)c1cc(F)cc(C(F)(F)F)c1 (stereo not drawn) [Compound I-354] | 100 to 500 |
| Nc1nc2ccc(-c3cc(NC(=O)c4cc(F)cc(C(F)(F)F)c4)c4c(c3)C(=O)N[C@@H]4c3cc(F)ccc3Cl)cn2n1 [Compound I-1444] | ≤ 100 |
| N[C@]1(C(F)(F)F)CN(C(=O)Nc2cccc3c2[C@@H](c2cc(F)ccc2Cl)NC3=O)c2ccc(F)cc21 (racemic) [Compound I-2471] | 1000 to 10000 |
| O=C1NC(c2cc(F)ccc2Cl)c2c(NC(=O)N3CCCC(C(F)(F)F)C3)cc(Br)cc21 (mixture of isomers) [Compound I-432] | 500 to 1000 |

| Structure (SMILES) | IC50 [nM] |
| --- | --- |
| CCC[C@@]1(O)CN(C(=O)Nc2cccc3c2[C@@H](c2cc(F)ccc2Cl)NC3=O)c2ccc(F)cc21 (single isomer, unassigned) [Compound I-2457] | 500 to 1000 |
| O=C(Nc1cc(N2CC(C(F)F)C2)nc2c1C(c1cc(F)ccc1Cl)NC2=O)c1cc(F)cc(C(F)(F)F)c1 (stereo not drawn) [Compound I-487] | ≤ 100 |
| N#CCn1nc(Nc2cc(-c3ccc4ncnn4c3)cc3c2C(c2cc(F)ccc2Cl)NC3=O)c2ccccc21 (stereo not drawn) [Compound I-1808] | 1000 to 10000 |
| O=C(Nc1cc(-c2ccc3ncnn3n2)cc2c1[C@@H](c1cc(F)ccc1Cl)NC2=O)c1cc(F)cc(C(F)(F)F)c1 [Compound I-1649] | 1000 to 10000 |
| O=C(O)c1cc(F)cc(C(=O)Nc2cc(Br)cc3c2C(c2cc(F)ccc2Cl)NC3=O)c1 (stereo not drawn) [Compound I-954] | 10000 to 100000 |
| O=C1N[C@H](c2cc(F)ccc2Cl)c2c(NC(=O)N3C[C@](O)(C(F)(F)F)c4cc(F)ccc43)cc(-n3nccn3)cc21 (single isomer, unassigned) [Compound I-2570] | 1000 to 10000 |
| CC(C)[C@H](N)C(=O)N1C(=O)c2cc(-c3ccc4ncnn4c3)cc(NC(=O)c3cc(F)cc(C(F)(F)F)c3)c2C1c1cc(F)ccc1Cl (stereo partly drawn) [Compound I-1343] | ≤ 100 |
| COC(C)(C)Cc1cc(NC(=O)c2cc(F)cc(C(F)(F)F)c2)c2c(c1)C(=O)NC2c1cc(F)ccc1Cl (stereo not drawn) [Compound I-820] | ≤ 100 |
| CC(=O)N1CCC[C@H](Oc2cc(NC(=O)c3cc(F)cc(C(F)(F)F)c3)c3c(c2)C(=O)NC3c2cc(F)ccc2Cl)C1 (single isomer, unassigned) [Compound I-1525] | 100 to 500 |
| O=C1N[C@H](c2cc(F)ccc2Cl)c2c(NC(=O)N3C[C@@H](O)c4cc(F)ccc43)cc(-n3nccn3)cc21 (single isomer, unassigned) [Compound I-2345] | 1000 to 10000 |
| CC(C)(O)c1cc(NC(=O)N2C[C@H](O)c3ccccc32)c2c(c1)C(=O)N[C@@H]2c1cc(F)ccc1Cl (single isomer, unassigned) [Compound I-2121] | 1000 to 10000 |
| O=C(Nc1cc(-c2ccc3nc(C(F)F)cn3c2)cc2c1[C@H](c1cc(F)ccc1Cl)NC2=O)c1cc(F)cc(C(F)(F)F)c1 [Compound I-1929] | ≤ 100 |
| Cc1cn(-c2cc(NC(=O)N3C[C@@](O)(C(F)(F)F)c4cc(F)ccc43)c3c(c2)C(=O)N[C@H]3c2cc(F)ccc2Cl)cn1 (single isomer, unassigned) [Compound I-2638] | 1000 to 10000 |
| CC(=O)N[C@H]1CCC[C@H](C(=O)Nc2cc(-c3ccc4ncnn4c3)cc3c2C(c2cc(F)ccc2Cl)NC3=O)C1 (mixture of isomers) [Compound I-1843] | 10000 to 100000 |
| O=C(Nc1cc(-c2cnc3nccn3c2)cc2c1[C@@H](c1cc(F)ccc1Cl)NC2=O)c1cc(F)cc(C(F)(F)F)c1 [Compound I-883] | 1000 to 10000 |
| Cc1ccccc1C1NC(=O)c2cccc(NC(=O)c3nsc4ccc(C#N)cc34)c21 (stereo not drawn) [Compound I-377] | 1000 to 10000 |
| COc1ccc2snc(C(=O)Nc3cccc4c3C(c3ccccc3C)NC4=O)c2c1 (stereo not drawn) [Compound I-129] | 10000 to 100000 |
| O=C(Nc1ccnc2c1C(c1cccc(F)c1F)NC2=O)c1cc(F)cc(Cl)c1 (stereo not drawn) [Compound I-173] | 1000 to 10000 |
| CC([C@H]1C[C@@H](O)CN1C(=O)Nc1cccc2c1C(c1cc(F)ccc1Cl)NC2=O)C(F)(F)F (single isomer, unassigned) [Compound I-2287] | 10000 to 100000 |
| Nc1nn(C(=O)Nc2cccc3c2C(c2cc(F)ccc2Cl)NC3=O)c2ccccc12 (stereo not drawn) [Compound I-2381] | 100 to 500 |
| CNC(=O)c1cc(NC(=O)c2cc(F)cc(C(F)(F)F)c2)c2c(c1)C(=O)N[C@H]2c1ccccc1C [Compound I-212] | ≤ 100 |
